# US20040077080A1, “Compositions and methods for induction of proteins involved in xenobiotic metabolism” (priority 2000, published 2004)
# Like-named read-outs stand apart in the source and are kept apart here.
# Tests used:
# [1] = tested on: AhR (dioxin response elements); assay: DRE12-6 luciferase assay (HepG2 with dioxin response elements)
# Procedure: FIG. 25A: DRE12-6 cells were treated for 28 hours with the indicated concentrations of phytochemicals. FIG. 25B: DRE12-6 cells were treated with the indicated chemicals for 3 hours prior to co-treatment with 2,3,7,8-tetrachlorodibenzo-p-dioxin (TCDD) for 28 hours.
# Chemical treatment was followed by cell lysis and luciferase measurement.
# FIG. 26A: DRE12-6 cells were inoculated into a 96-well plate (2×10^4 cells per well) a day prior to treatment and treated for 28 hours with the indicated concentrations of the environmental contaminants (PAHs, PAH derivatives, PCBs, or pesticide derivatives). FIG. 26B: DRE12-6 cells were treated with the indicated chemicals for 3 hours prior to co-treatment with 2,3,7,8-tetrachlorodibenzo-p-dioxin (TCDD) for 28 hours.
# The luciferase-SV40 promoter vector, with the three copies of the dioxin response elements, was transfected into HepG2 cells, which were put under neomycin selection to yield the stable cell line DRE12-6, for detection of AhR-dependent transactivation.
# Luciferase assay: Luciferase assays using the LucLite system (Packard Instrument Co., Meriden, Conn.) were performed according to the manufacturer's instructions. Results were expressed as relative light units or fold induction, relative to DMSO-treated control cells. The data represent the mean±standard deviation of experiments performed in duplicate.
# CYP1A1 mRNA [2] = assay: Northern blot of CYP1A1 in primary human hepatocytes (Example V); details: hepatocytes
# Description: The isolated RNA was subjected to Northern blot analysis.
# CYP1A1 mRNA [3] = assay: Northern blot of CYP1A1 mRNA in primary cultures of human hepatocytes (Example II); details: hepatocytes
# Procedure: Six well plates containing human hepatocytes were obtained from the Liver Tissue Procurement and Distribution System (LTPADS, University of Minnesota, Minneapolis, Minn.). […] All inducers were dissolved in DMSO and added to media at a 0.1% final concentration of this reagent. After treatment, media was removed and cells harvested for RNA isolation.
# (§1) Total RNA from hepatocytes or HepG2 cells was isolated using Trizol™ reagent (Gibco BRL Products, Gaithersburg, Md.) and quantified by measuring absorbance at 260 nm; purity was assessed by determining the 260/280 nm ratio. […] A cDNA probe for human 18S RNA probe (Ambion, Austin Tex.) was used to normalize the amount of RNA loaded in each lane. […] Autoradiographs of Northern blots were quantified by densitometry using a Model GS-670 Imaging Densitometer equipped with Molecular Analysis/Mac version 1.1.1. Image Analysis software (BioRad laboratories, Hercules, Calif.) or by scaning autoradiograms with a ScanMaker II (Microtek) and digitized with Un-Scan-It software (Silk Scientific, Orem Utah). Exposure times used were in the linear range of the film, Kodak XAR-5.
# [4] = tested on: PXR / mdr1(dr4) response element; assay: Hep-PXR/Pgp-Luc stable cell luciferase assay; details: 48 hours; for strength of luciferase induction (in words): Hep-PXR/PgpLuc cells, omeprazole 100 micromoles per liter versus rifampicin 10 micromoles per liter; for dose dependence of luciferase induction (in words): Hep-PXR/Pgp-Luc cells
# Procedure: (§2) FIG. 35 depicts dose-response behavior to various PXR activators in stable cell lines overexpressing PXR and harboring DR4 response element. FIG. 35A: Results are shown for the stable cell line Hep-PXR/PgpLuc. FIG. 35B: Results are shown for the stable cell line Caco-PXR/PgpLuc.
# (§3) Cells were exposed to the test compounds for 48 hours at the concentrations indicated.
# FIG. 36 depicts the effect of environmental and botanical chemicals on luciferase activity in the stable cell line Hep-PXR/PgpLuc. Cells were inoculated into 96-well plates at a density of 2×10^4 cells per well. After overnight recovery, cells were treated with the test compounds at the concentrations indicated for 48 hours.
# (§4) Establishment of stable transformants containing both PXR and reporter plasmid and development of high throughput bioassay for PXR-dependent transactivation: The stable transformants Hep-PXR/mdr1(dr4)-Luc and Caco-PXR/mdr1(dr4)-Luc cell lines were generated from the parental cell lines HepG-PXR and Caco-PXR, respectively, according to the following procedure. The parental cell lines HepG-PXR and Caco-PXR, which overexpress PXR, were stably transfected with the luciferase reporter plasmid mdr1(dr4)-Luc. The transfected cells were cultured in DMEM (HepG-PXR cells) or in IMEM (Caco-PXR cells), both media supplemented with 10% fetal bovine serum and neomycin (700 micrograms per milliliter).
# (§5) For the induction assay, stable transformants were seeded in 96-wells plates at a density of 1×10^4 cells per well and allowed to recover overnight. Plates were treated with test compounds at varying concentrations, using 3 replicates per dose. After 48 hours of exposure to the test compound, cells were washed with phosphate buffered saline, lysis buffer was applied to the wells, and luciferase substrate added. Following 10 minutes for light adaptation, luminescence was monitored according to the manufacturer's instructions (Packard kit, Biomed).
# [5] = tested on: PXR / CYP3A4 response elements; assay: DPX2 (Hepg-hPXR/3A4-Luc) luciferase assay; details: DPX2 cells, 48 hours
# Procedure: Compounds tested included known PXR ligands and conventional drugs (FIG. 30A), environmental contaminants (FIG. 30B), and herbal supplements (FIG. 30C). DPX2 cells were cultured with DMEM supplemented with 10% fetal bovine serum and neomycin. Cells were inoculated into 96-well plate at a density of 1×10^4 cells per well the day before treatment.
# 2. […] In addition, a distal enhancer module, XREM, was amplified by PCR using the sense primer
# The resulting amplified XREM fragment was ligated upstream of PXRE containing a 3A4 promoter, into a luciferase vector.
# A neomycin resistance gene was generated by PCR amplification using the pcDNA3.1 plasmid (Invitrogen, Carlsbad, Calif.), which encodes a neomycin resistant gene, as a DNA template. The sense primer had the sequence […] Amplification was followed by SalI digestion of the PCR product, and the resulting fragment ligated to the SalI-digested PGL3-promoter plasmid, which contains luciferase as a reporter gene. […] The CYP3A4 cell line DPX2 (Hepg-hPXR/3A4-Luc) was established by double transfection with the PXR expression plasmid and the luciferase plasmid containing CYP3A4 PXR response element under selection with both neomycin and hygromycin.
# CYP1A1 mRNA [6] = assay: Northern blot of CYP1A1 mRNA in HepG2 cells
# Procedure: HepG2 cells were obtained from American Type Culture Collection (ATCC). Cells were grown in DMEM (Gibco/BRL). Twenty-four hours after cells were plated and grown to confluency, they were treated with one of the bioflavonoids, TCDD, or beta-naphthoflavone (Sigma). All inducers were dissolved in DMSO and this solvent was added to control cells at 0.1%.
# as §1
# MDR1 P-glycoprotein mRNA = assay: Northern blot of MDR1 P-glycoprotein expression (Example VI)
# Description: FIG. 31 depicts MDR1 gene expression in LS174T cells as analyzed by Northern blot. […] Total RNA from the colon adenocarcinoma cell line LS174T was isolated and fractionated on a 1% formaldehyde gel and transferred onto a nylon membrane. The RNA blot was hybridized to ^32P-labeled MDR1 cDNA probe (top panel) or 18s rRNA probe for normalization of RNA loading on the gel (bottom panel).
# FIG. 32A: Lanes 1 and 2, primary human hepatocytes; lanes 3 and 4, LS174T cells. FIG. 32B: Lanes 1 and 2, HepG2 cells; lanes 3 and 4, HepG2 that overexpress PXR (Hepg-PXR cells). FIG. 32C: Lanes 1 and 2, Caco-2; lanes 3 and 4, Caco-2 cells that overexpress PXR (Caco-PXR cells).
# Total RNA from the colon adenocarcinoma cell line LS174T was isolated and fractionated on a 1% formaldehyde gel and transferred onto a nylon membrane. The RNA blot was hybridized to ^32-P-labeled MDR1 cDNA probe (top panels), ^32-P-labeled CYP3A4 cDNA probe (middle panels), or 18s rRNA probe for normalization of RNA loading on the gel (bottom panels).
# FIG. 37 depicts MDR1 gene regulation in response to chrysin as studied by Northern blot analysis. […] Total RNA from the hepatocytes was isolated and fractionated on a 1% formaldehyde gel and transferred onto a nylon membrane. The RNA blot was hybridized to ^32-P-labeled MDR1 cDNA probe (top panels), ^32P-labeled CYP3A4 cDNA probe (middle panels), or 18s rRNA probe for normalization of RNA loading on the gel (bottom panels).
# Northern Blot analysis for MDR1 P-glycoprotein and CYP3A4 expression: Total RNA was prepared from cells (primary hepatocytes, LS174T, HepG2, or Caco-2) using Trizol reagent (Invitrogen, Carlsbad, Calif.). For Northern blots, 15 micrograms of total RNA was fractionated on a 1% formaldehyde gel and transferred onto a nylon membrane by capillary transfer. A 530-base pair fragment of MDR1 cDNA was obtained from PCR cloning using the sense primer […] The resulting fragment was ^32P-labeled by random priming (Invitrogen, Carlsbad, Calif.) for use as an MDR1 probe. […] All constructs and cDNAs were subjected to sequence analysis. Hybridization was performed with the ExpressHyb system according to the manufacturer's instructions (Clontech, Palo Alto, Calif.).
# [7] = tested on: PXR / mdr1(dr4) response element; assay: Caco-PXR/Pgp-Luc stable cell luciferase assay; details: Caco-PXR/Pgp-Luc cells, 48 hours
# Procedure: as §2, §3, §4, §5
# [8] = tested on: human CYP1A1 promoter (Ah receptor); assay: 101L cell luciferase assay (HepG2 with human CYP1A1 promoter-luciferase), 96-well; details: 101L cells, 18 hours; 1 to 20 micromolar (resveratrol 10, apigenin 5, quercetin and curcumin 20 micromolar); GTE 0.1 milligrams/ml
# Procedure: Cells were initially seeded in flasks containing media without G418. After an overnight incubation the cultures were changed into media containing G418 for antibiotic selection. After three to five days, cells were removed from flasks by trypsinization and replated on either a twenty-four-well plate at a density of 3.5×10^5 cells per well, or a ninety-six-well plate at a density of 7.5×10^4 cells per well, in DMEM media that was replaced with that containing 0.1% FBS and without G418 or indicator (phenol red). The next day, media containing 0.1% FBS and G418 was added to the cultures. […] For the antagonist experiments, cells were co-treated with a flavonoid and two nanomolar TCDD. All inducers were dissolved in DMSO and this reagent was added to control cells at 0.1%. The cells were treated with varous doses and times (six to eighteen hours). After treatment, the media containing the compound was removed by aspiration and replaced with one-hundred microliters per well of DMEM for direct analysis of luciferase activity. Experiments were performed on 101L cells from frozen stocks on the initial derivation and the passage number was limited to thirty.
# Luciferase assays were performed as specified by the manufacturer (LucLite system, Packard Instrument, Meriden, Conn.). Activity was determined using a Packard LumiCount luminometer and results expressed as relative light units or fold increase above control (DMSO treated cells.
# [9] = DRE12-6 cells, test compound 3 hours prior to co-treatment with TCDD for 28 hours
molecule,measurement,setting,value
"Cc1ccc2cc3c(ccc4ccccc43)c3c2c1CC3 [3-MC, 3-methylcholanthrene]",AhR-mediated luciferase induction (in words),"[1]; DRE12-6 cells, 28 hours",dose-dependent increase
same,CYP1A1 induction by Northern blot (in words),CYP1A1 mRNA [2],maximum induction
O=c1c(O)c(-c2ccc(O)cc2)oc2cc(O)cc(O)c12 [kaempferol],effect on TCDD-mediated luciferase induction (in words),[1],effectively inhibited
same,"CYP1A1 mRNA level Subject B (%), normalized to TCDD induction","CYP1A1 mRNA [3]; human, 24 h",0%
same,"CYP1A1 mRNA level Subject C (%), normalized to benzanthracene induction","CYP1A1 mRNA [3]; human, 24 h",10%
same,"CYP1A1 mRNA level Subject D (%), normalized to TCDD induction","CYP1A1 mRNA [3]; human, 24 h",0%
COc1ccc(C(c2ccc(OC)cc2)C(Cl)(Cl)Cl)cc1 [methoxychlor],effect on TCDD-mediated luciferase induction (in words),[1]; [9],effectively inhibited
same,strength of luciferase induction (in words),[4],strongly induced
same,luciferase response curve (in words),[5],dose-dependent
O=C1C[C@@H](c2ccc(O)cc2)Oc2cc(O)cc(O)c21 [naringenin],"HepG2 CYP1A1 mRNA (%), normalized to TCDD induction",CYP1A1 mRNA [6]; human,0%
same,"CYP1A1 mRNA level Subject D (%), normalized to TCDD induction","CYP1A1 mRNA [3]; human, 24 h",0%
Clc1ccccc1C(c1ccccc1)(c1ccccc1)n1ccnc1 [clotrimazole],luciferase response curve (in words),[5],dose-dependent
CO[C@H]1/C=C/O[C@@]2(C)Oc3c(C)c(O)c4c(O)c(c(/C=N/N5CCN(C)CC5)c(O)c4c3C2=O)NC(=O)/C(C)=C\C=C\[C@H](C)[C@H](O)[C@@H](C)[C@@H](O)[C@@H](C)[C@H](OC(C)=O)[C@@H]1C [rifampicin],MDR1 P-glycoprotein expression in Hep-PXR stable cells (in words),MDR1 P-glycoprotein mRNA; human,did not induce MDR1 P-glycoprotein expression further
COc1cc(/C=C/C(=O)CC(=O)/C=C/c2ccc(O)c(OC)c2)ccc1O [curcumin],induction of CYP1A1 mRNA in isolated hepatocytes (in words),CYP1A1 mRNA [3],did not elicit induction
O=c1cc(-c2ccccc2)oc2ccc3ccccc3c12 [beta-naphthoflavone],"HepG2 CYP1A1 mRNA (%), normalized to TCDD induction",CYP1A1 mRNA [6],50%
O=c1cc(-c2ccc(O)cc2)oc2cc(O)cc(O)c12 [apigenin],effect on TCDD-mediated luciferase induction (in words),[1],effectively inhibited
same,"HepG2 CYP1A1 mRNA (%), normalized to TCDD induction",CYP1A1 mRNA [6]; human,1%
same,"CYP1A1 mRNA level Subject B (%), normalized to TCDD induction","CYP1A1 mRNA [3]; human, 24 h",0%
same,"CYP1A1 mRNA level Subject C (%), normalized to benzanthracene induction","CYP1A1 mRNA [3]; human, 24 h",3%
same,"CYP1A1 mRNA level Subject D (%), normalized to TCDD induction","CYP1A1 mRNA [3]; human, 24 h",0%
C[C@@H]1C[C@H]2[C@@H]3CCC4=CC(=O)C=C[C@]4(C)[C@@]3(F)[C@@H](O)C[C@]2(C)[C@@]1(O)C(=O)CO [dexamethasone],dose dependence of luciferase induction (in words),[4],dose-dependent luciferase induction
same,strength of luciferase induction (in words),[4],Weaker luciferase induction
same,dose dependence of luciferase induction (in words),[7],dose-dependent luciferase induction
"CC#C[C@]1(O)CC[C@H]2[C@@H]3CCC4=CC(=O)CCC4=C3[C@@H](c3ccc(N(C)C)cc3)C[C@@]21C [RU486, mifepristone]",dose dependence of luciferase induction (in words),[4],dose-dependent luciferase induction
same,dose dependence of luciferase induction (in words),[7],dose-dependent luciferase induction
same,strength of luciferase induction (in words),[7],strongly induce
same,MDR1 expression in LS174T cells (in words),"MDR1 P-glycoprotein mRNA; LS174T cells, 48 hours",effectively induced
O=c1c(O)c(-c2ccc(O)c(O)c2)oc2cc(O)cc(O)c12 [quercetin],effect on TCDD-mediated luciferase induction (in words),[1],effectively inhibited
same,induction of CYP1A1 mRNA in isolated hepatocytes (in words),CYP1A1 mRNA [3],did not elicit induction
"Clc1cc(-c2ccccc2)c(Cl)c(Cl)c1Cl [2,3,4,5 tetrachlorobiphenyl]",effect on TCDD-mediated luciferase induction (in words),[1]; [9],effectively inhibited
(−)-epigallocatechin gallate [EGCG],fold induction of CYP1A1-promoter-mediated luciferase activity by flavonoids,[8],negligible effects
Oc1ccc(C=Cc2cc(O)cc(O)c2)cc1 [resveratrol],"HepG2 CYP1A1 mRNA (%), normalized to TCDD induction",CYP1A1 mRNA [6]; human,12%
same,"CYP1A1 mRNA level Subject A (%), normalized to TCDD induction","CYP1A1 mRNA [3]; human, 24 h",5%
same,"CYP1A1 mRNA level Subject B (%), normalized to TCDD induction","CYP1A1 mRNA [3]; human, 24 h",0%
same,"CYP1A1 mRNA level Subject C (%), normalized to benzanthracene induction","CYP1A1 mRNA [3]; human, 24 h",12%
same,"CYP1A1 mRNA level Subject D (%), normalized to TCDD induction","CYP1A1 mRNA [3]; human, 24 h",0%
C[C@@]12CCC[C@H]1[C@@H]1CC[C@H]3C[C@@H](O)CC[C@]3(C)[C@H]1CC2 [androstanole],dose dependence of luciferase induction (in words),[4],dose-dependent luciferase induction
same,dose dependence of luciferase induction (in words),[7],dose-dependent luciferase induction
